Measured values reported in patent US20030236213A1, “Mimics of acyl coenzyme-A comprising pantolactone and pantothenic acid derivatives, compositions thereof, and methods of cholesterol management and related uses” (priority 2002, published 2003).

Tests used:
obese female Zucker rats = assay: Oral daily treatment of obese female Zucker rats for fourteen days; type: in vivo, rat; conditions: 14 days; for Glucose, Percent Change from Pre-treatment: blood, 6-hour fast; for Glucose, Percent Change from Pre-treatment / BHA, Percent Change from Pre-treatment / HDL-C, Percent Change from Pre-treatment / Insulin, Percent Change from Pre-treatment / NEFA, Percent Change from Pre-treatment / Non HDL-C, Percent Change from Pre-treatment / TC, Percent Change from Pre-treatment / TG, Percent Change from Pre-treatment: oral daily; for % wt. gain / HDL-C/non HDL-C: oral gavage daily; for BHA, Percent Change from Pre-treatment / HDL-C, Percent Change from Pre-treatment / Insulin, Percent Change from Pre-treatment / NEFA, Percent Change from Pre-treatment / Non HDL-C, Percent Change from Pre-treatment / TC, Percent Change from Pre-treatment / TG, Percent Change from Pre-treatment: serum
Method: In a number of different experiments, compounds described in Table 1 were administered daily to 11-13 week old chow fed obese female Zucker rats for 14 days in the morning by oral gavage in 20% ethanol/80% polyethylene glycol-200 (dosing vehicle)(“EP”). The dosing vehicle was administered to control animals in parallel experiments.
Body weight was determined daily prior to dosing. Animals were allowed free access to rodent chow and water throughout the study. Blood glucose was determined after a 6-hour fast in the afternoon without anesthesia from a tail vein. Serum was also prepared from a blood sample subsequently obtained from the orbital venous plexus (with O2/CO2 anesthesia) prior to and after one week treatment and used lipid and insulin determinations. At two weeks, blood glucose was again determined after a 6-hour fast without anesthesia from a tail vein. Soon thereafter, animals were sacrificed by CO2 inhalation in the afternoon and cardiac blood serum was collected and assessed for various lipids and insulin.

primary rat hepatocytes = assay: Synthesis of total lipids (14C-acetate labeling) in primary rat hepatocytes; type: cell-based; conditions: Hepatocyte, 14C-acetate labeling 4 hr at 37° C., 1-300 μM, read-out: IC50, total lipid synthesis
Method: A male Sprague-Dawley rate was anesthetized by administration of sodium pentobarbitol by intraperitoneal at 80 mg/kg. In situ perfusion of the liver was performed as follows. The abdomen of the animal was opened, the portal vein canulated, and the liver perfused with WOSH solution (149 mM NaCl, 9.2 mM Na HEPES, 1.7 mM Fructose, 0.5 mM EGTA, 0.029 mM Phenol red, 10 U/ml heparin, pH 7.5) at a flow rate of 30 ml/min for 6 minutes. To digest the liver, DSC solution (6.7 mM KCl, 143 mM NaCl, 9.2 mM Na HEPES, 5 mM CaCl2-2H2O, 1.7 mM Fructose, 0.029 mM Phenol red, 0.2% BSA, 100 U/ml collagenase Type I, 160 BAEE/ml trypsin inhibitor, pH 7.5) was perfused through the liver at a flow rate of 30 ml/min for 6 minutes at a temperature of 37° C. After digestion, cells were dispersed in a solution of DMEM-(DMEM containing 2 mM GlutMax-1, 0.2% BSA, 5% FBS, 12 nM insulin, 1.2 μM hydrocortisone) to stop the digestion process. The crude cell suspension was filtered through three layers of stainless steel mesh with pore sizes of 250, 106, and 75 μm respectively. Filtered cells were centrifuged at 50×g for two minutes and the supernatant discarded. The resulting cell pellet was resuspended in DMEM and centrifuged again. […]

melting point [°C] | % wt. gain (obese female Zucker rats; 30 mg/kg/day) [%] | % wt. gain (obese female Zucker rats; 100 mg/kg/day) [%] | SMILES | Glucose, Percent Change from Pre-treatment (obese female Zucker rats; 30 mg/kg/day) [%] | HDL-C/non HDL-C (obese female Zucker rats; 30 mg/kg/day) | BHA, Percent Change from Pre-treatment (obese female Zucker rats; 30 mg/kg/day) [%] | HDL-C, Percent Change from Pre-treatment (obese female Zucker rats; 30 mg/kg/day) [%] | Insulin, Percent Change from Pre-treatment (obese female Zucker rats; 30 mg/kg/day) [%] | NEFA, Percent Change from Pre-treatment (obese female Zucker rats; 30 mg/kg/day) [%] | Non HDL-C, Percent Change from Pre-treatment (obese female Zucker rats; 30 mg/kg/day) [%] | TC, Percent Change from Pre-treatment (obese female Zucker rats; 30 mg/kg/day) [%] | TG, Percent Change from Pre-treatment (obese female Zucker rats; 30 mg/kg/day) [%] | Glucose, Percent Change from Pre-treatment (obese female Zucker rats; 100 mg/kg/day) [%] | HDL-C/non HDL-C (obese female Zucker rats; 100 mg/kg/day) | BHA, Percent Change from Pre-treatment (obese female Zucker rats; 100 mg/kg/day) [%] | HDL-C, Percent Change from Pre-treatment (obese female Zucker rats; 100 mg/kg/day) [%] | Insulin, Percent Change from Pre-treatment (obese female Zucker rats; 100 mg/kg/day) [%] | NEFA, Percent Change from Pre-treatment (obese female Zucker rats; 100 mg/kg/day) [%] | Non HDL-C, Percent Change from Pre-treatment (obese female Zucker rats; 100 mg/kg/day) [%] | TC, Percent Change from Pre-treatment (obese female Zucker rats; 100 mg/kg/day) [%] | other results
124.8 to 124.9 | 12 |  | CC(C)(CO)[C@H](O)C(=O)NCCNC(=O)[C@@H](O)C(C)(C)CO [Compound V4] | 2 | 1 | 79 | 5 | 4 | −28 | 75 | 23 | 22 |  |  |  |  |  |  |  |  | 
 |  | 11 | CC(C)(CO)[C@H](O)C(=O)NCCNC(=O)[C@H](O)C(C)(C)CO [Compound V1, (R,S)-N-[2-(2,4-Dihydroxy-3,3-dimethylbutyrylamino)-ethyl]-2,4-dihydroxy-3,3-dimethyl-butyramide] |  |  |  |  |  |  |  |  |  | −3 | 1 | 63 | 77 | −20 | 7 | 6 | 34 | TG, Percent Change from Pre-treatment (obese female Zucker rats; 100 mg/kg/day): 22%
 | 10 |  | CC(C)(CO)C(O)C(=O)NCCNC(=O)C(O)C(C)(C)CO (racemic) [Compound V2, N-[2-(2,4-Dihydroxy-3,3-dimethylbutyrylamino)-ethyl]-2,4-dihydroxy-3,3-dimethylbutyramide] | −8 | 2 | 58 | −20 | −53 | −23 | 23 | −13 | 36 |  |  |  |  |  |  |  |  | 
124.8 to 124.9 | 9 |  | CC(C)(CO)[C@@H](O)C(=O)NCCNC(=O)[C@H](O)C(C)(C)CO [Compound V3, (R,R)-N-[2-(2,4-Dihydroxy-3,3-dimethylbutyrylamino)-ethyl]-2,4-dihydroxy-3,3-dimethylbutyramide] | 3 | 2 | 69 | 7 | 11 | −16 | 16 | 9 | 14 |  |  |  |  |  |  |  |  | 
101 to 102.5 |  | 11 | CCCCCOc1cc(C)c(NC(=O)C(O)C(C)(C)CO)c(C)c1 (centres unmarked) [AA, N-(2,6-dimethyl-4-pentyloxy-phenyl)-2,4-dihydroxy-3,3-dimethyl-butyramide] |  |  |  |  |  |  |  |  |  | 10 | 3 | 51 | 87 | −10 | −30 | −17 | 41 | TG, Percent Change from Pre-treatment (obese female Zucker rats; 100 mg/kg/day): −38%
 |  | 9 | CC(C)(CO)C(O)C(=O)NCCOCCNC(=O)C(O)C(C)(C)CO (centres unmarked) [U, N-{2-[2-(2,4-Dihydroxy-3,3-dimethylbutyrylamino)-ethoxy]-ethyl}-2,4-dihydroxy-3,3-dimethylbutyramide] |  |  |  |  |  |  |  |  |  | −3 | 2 | 254 | 14 | 6 | 13 | −2 | 8 | TG, Percent Change from Pre-treatment (obese female Zucker rats; 100 mg/kg/day): 1%
 |  |  | Cc1cc(OCCCCC(C)(C)CO)cc(C)c1NC(=O)C(O)C(C)(C)CO (centres unmarked) [Compound AC, 2,4-dihydroxy-N-[4-(6-hydroxy-5,5-dimethyl-hexyloxy)-2,6-dimethyl-phenyl]-3,3-dimethyl-butyramide] |  |  |  |  |  |  |  |  |  |  |  |  |  |  |  |  |  | IC50 (primary rat hepatocytes): 2100 nM
120 to 121.5 |  |  | CC(C)(CO)C(O)C(=O)NCc1cccnc1 (centres unmarked) [AB, 2,4-Dihydroxy-3,3-dimethyl-N-pyridin-3ylmethyl-butyramide] |  |  |  |  |  |  |  |  |  |  |  |  |  |  |  |  |  | 
